“And” between values parts separate entries of the source, which are not always exact repeats. Equal values may be shown once.
Conditions: 323.15 K, Liquid, Vibrating tube method

CCCCCCCCCC [decane]
Conditions | mass density
979 kPa | 707.8 kg/m3
1136 kPa | 707.9 kg/m3
1175 kPa | 707.9 kg/m3
2516 kPa | 709.2 kg/m3
2603 kPa | 709.2 kg/m3
2658 kPa | 709.3 kg/m3
2678 kPa | 709.4 kg/m3
2691 kPa | 709.3 kg/m3
2692 kPa | 709.2 kg/m3 and 709.4 kg/m3
2703 kPa | 709.4 kg/m3
2822 kPa | 709.4 kg/m3
2861 kPa | 709.4 kg/m3
2878 kPa | 709.5 kg/m3
2894 kPa | 709.6 kg/m3
2913 kPa | 709.5 kg/m3
2936 kPa | 709.5 kg/m3
2951 kPa | 709.6 kg/m3
2967 kPa | 709.5 kg/m3
2987 kPa | 709.6 kg/m3
3000 kPa | 709.7 kg/m3
3022 kPa | 709.6 kg/m3
3044 kPa | 709.5 kg/m3
3064 kPa | 709.6 kg/m3
3081 kPa | 709.7 kg/m3
4273 kPa | 710.8 kg/m3
4294 kPa | 710.8 kg/m3
4322 kPa | 710.8 kg/m3
4342 kPa | 710.9 kg/m3
4361 kPa | 710.8 kg/m3
4382 kPa | 710.8 kg/m3
4423 kPa | 710.9 kg/m3
4487 kPa | 711 kg/m3
4606 kPa | 711 kg/m3
4625 kPa | 711.1 kg/m3
4647 kPa | 711.1 kg/m3
4668 kPa | 711.2 kg/m3
4685 kPa | 711.2 kg/m3
4861 kPa | 711.3 kg/m3
4889 kPa | 711.4 kg/m3
4922 kPa | 711.3 kg/m3
5651 kPa | 712 kg/m3
5805 kPa | 712.2 kg/m3
5822 kPa | 712.1 kg/m3
5843 kPa | 712.2 kg/m3
5857 kPa | 712.3 kg/m3
5874 kPa | 712.2 kg/m3
5887 kPa | 712.2 kg/m3
6263 kPa | 712.6 kg/m3
6285 kPa | 712.6 kg/m3
6300 kPa | 712.6 kg/m3
6321 kPa | 712.5 kg/m3
6341 kPa | 712.7 kg/m3
6363 kPa | 712.7 kg/m3
6380 kPa | 712.6 kg/m3
6398 kPa | 712.7 kg/m3
6436 kPa | 712.7 kg/m3
6474 kPa | 712.7 kg/m3
6492 kPa | 712.8 kg/m3
6514 kPa | 712.7 kg/m3
6635 kPa | 712.8 kg/m3
6654 kPa | 712.9 kg/m3
6678 kPa | 712.9 kg/m3
6703 kPa | 713 kg/m3
6916 kPa | 713 kg/m3
6934 kPa | 713.1 kg/m3
6961 kPa | 713.2 kg/m3
6979 kPa | 713.1 kg/m3
7007 kPa | 713.1 kg/m3
7029 kPa | 713.3 kg/m3
7057 kPa | 713.3 kg/m3
7082 kPa | 713.3 kg/m3
7102 kPa | 713.2 kg/m3
7118 kPa | 713.3 kg/m3
7137 kPa | 713.4 kg/m3
7158 kPa | 713.4 kg/m3
7174 kPa | 713.4 kg/m3
7190 kPa | 713.4 kg/m3
7203 kPa | 713.3 kg/m3
7224 kPa | 713.3 kg/m3
7238 kPa | 713.4 kg/m3
7254 kPa | 713.5 kg/m3
7271 kPa | 713.5 kg/m3
7304 kPa | 713.4 kg/m3
7318 kPa | 713.5 kg/m3
7339 kPa | 713.4 kg/m3
7354 kPa | 713.4 kg/m3
7368 kPa | 713.5 kg/m3
8395 kPa | 714.3 kg/m3
8425 kPa | 714.4 kg/m3
8563 kPa | 714.5 kg/m3
8605 kPa | 714.6 kg/m3
9325 kPa | 715.2 kg/m3
9451 kPa | 715.3 kg/m3
10321 kPa | 715.9 kg/m3
10344 kPa | 716 kg/m3
10548 kPa | 716.3 kg/m3
11286 kPa | 716.8 kg/m3
11307 kPa | 716.8 kg/m3
11331 kPa | 716.8 kg/m3
11359 kPa | 716.8 kg/m3
11377 kPa | 716.9 kg/m3
11401 kPa | 717 kg/m3
11467 kPa | 717 kg/m3
12096 kPa | 717.5 kg/m3
12122 kPa | 717.5 kg/m3
12147 kPa | 717.6 kg/m3
12173 kPa | 717.6 kg/m3
12190 kPa | 717.7 kg/m3
12213 kPa | 717.5 kg/m3
12230 kPa | 717.6 kg/m3
12257 kPa | 717.6 kg/m3
12397 kPa | 717.7 kg/m3
12417 kPa | 717.7 kg/m3
12435 kPa | 717.8 kg/m3
12457 kPa | 717.8 kg/m3
12472 kPa | 717.8 kg/m3
12495 kPa | 717.8 kg/m3
12510 kPa | 717.9 kg/m3
12528 kPa | 717.8 kg/m3
12854 kPa | 718.2 kg/m3
12869 kPa | 718.2 kg/m3
12887 kPa | 718.1 kg/m3
12906 kPa | 718.2 kg/m3
12919 kPa | 718.1 kg/m3
12964 kPa | 718.2 kg/m3
12977 kPa | 718.3 kg/m3
12991 kPa | 718.2 kg/m3
13012 kPa | 718.2 kg/m3
13060 kPa | 718.2 kg/m3
13843 kPa | 718.9 kg/m3
13863 kPa | 718.9 kg/m3
13877 kPa | 718.9 kg/m3
13892 kPa | 719 kg/m3
13909 kPa | 719 kg/m3
13924 kPa | 719 kg/m3
13946 kPa | 719 kg/m3
